Measurements published in ChEMBL document CHEMBL1201862, “PubChem BioAssay data set” (2004).
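These data come from cells grown in 96-well plates and exposed to compound for 48 hours at five concentrations. GI50 = concentration required for 50% inhibition of growth.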 Active and inactive are the calls of the source. No stated cut-off is given here; in the data, active = GI50 up to about 1.1 µM and inactive = higher.

Tests used:
Experiment in all cases: NCI tumour cell line growth inhibition, 48 h
UACC-62 = test system: UACC-62
MDA-N = test system: MDA-N
SN12C = test system: SN12C
HCC 2998 = test system: HCC 2998
COLO 205 = test system: COLO 205
CCRF-CEM = test system: CCRF-CEM
SK-MEL-5 = test system: SK-MEL-5
SF-295 = test system: SF-295
KM12 = test system: KM12
LOX IMVI = test system: LOX IMVI
OVCAR-8 = test system: OVCAR-8
ACHN = test system: ACHN
U-251 = test system: U-251
BT-549 = test system: BT-549
MDA-MB-435 = test system: MDA-MB-435
NCI-H460 = test system: NCI-H460
SK-MEL-28 = test system: SK-MEL-28
NCI-H522 = test system: NCI-H522
SNB-19 = test system: SNB-19
EKVX = test system: EKVX
UO-31 = test system: UO-31
OVCAR-4 = test system: OVCAR-4
HL-60 = test system: HL-60
Hs-578T = test system: Hs-578T
SK-OV-3 = test system: SK-OV-3
SW-620 = test system: SW-620
RPMI-8226 = test system: RPMI-8226
NCI-H23 = test system: NCI-H23
OVCAR-3 = test system: OVCAR-3
SF-539 = test system: SF-539
OVCAR-5 = test system: OVCAR-5
K562 = test system: K562
A549 = test system: A549
MDA-MB-231 = test system: MDA-MB-231
TK-10 = test system: TK-10
SK-MEL-2 = test system: SK-MEL-2
IGROV-1 = test system: IGROV-1
RXF 393 = test system: RXF 393
MOLT-4 = test system: MOLT-4
DU-145 = test system: DU-145
SF-268 = test system: SF-268
HCT-15 = test system: HCT-15
T47D = test system: T47D
HCT-116 = test system: HCT-116
M14 = test system: M14
HT-29 = test system: HT-29
SNB-75 = test system: SNB-75
NCI/ADR-RES = test system: NCI/ADR-RES
CAKI-1 = test system: CAKI-1
PC-3 = test system: PC-3
UACC-257 = test system: UACC-257
MCF7 = test system: MCF7
A498 = test system: A498
HOP-62 = test system: HOP-62
Malme-3M = test system: Malme-3M
NCI-H226 = test system: NCI-H226
786-0 = test system: 786-0

SMILES: O=C(O)c1cccc2cccc(-c3c4ccc(=O)cc-4oc4cc(O)ccc34)c12
- GI50 (UACC-62): > 100 µM (inactive)
- GI50 (MDA-N): 71 µM (inactive)
- GI50 (SN12C): > 100 µM (inactive)
- GI50 (HCC 2998): > 100 µM (inactive)
- GI50 (COLO 205): 98.6 µM (inactive)
- GI50 (CCRF-CEM): 69.2 µM (inactive)
- GI50 (SK-MEL-5): > 100 µM (inactive)
- GI50 (SF-295): 34.8 µM (inactive)
- GI50 (KM12): > 100 µM (inactive)
- GI50 (LOX IMVI): > 100 µM (inactive)
- GI50 (OVCAR-8): > 100 µM (inactive)
- GI50 (ACHN): > 100 µM (inactive)
- GI50 (U-251): > 100 µM (inactive)
- GI50 (BT-549): > 100 µM (inactive)
- GI50 (MDA-MB-435): > 100 µM (inactive)
- GI50 (NCI-H460): > 100 µM (inactive)
- GI50 (SK-MEL-28): > 100 µM (inactive)
- GI50 (NCI-H522): > 100 µM (inactive)
- GI50 (SNB-19): > 100 µM (inactive)
- GI50 (EKVX): > 100 µM (inactive)
- GI50 (UO-31): > 100 µM (inactive)
- GI50 (OVCAR-4): > 100 µM (inactive)
- GI50 (HL-60): 62.7 µM (inactive)
- GI50 (Hs-578T): 93.1 µM (inactive)
- GI50 (SK-OV-3): 33.4 µM (inactive)
- GI50 (SW-620): 49.7 µM (inactive)
- GI50 (RPMI-8226): 32.6 µM (inactive)
- GI50 (NCI-H23): > 100 µM (inactive)
- GI50 (OVCAR-3): 21.3 µM (inactive)
- GI50 (SF-539): > 100 µM (inactive)
- GI50 (OVCAR-5): > 100 µM (inactive)
- GI50 (K562): 31 µM (inactive)
- GI50 (A549): > 100 µM (inactive)
- GI50 (MDA-MB-231): 81.1 µM (inactive)
- GI50 (TK-10): > 100 µM (inactive)
- GI50 (SK-MEL-2): > 100 µM (inactive)
- GI50 (IGROV-1): 75 µM (inactive)
- GI50 (RXF 393): > 100 µM (inactive)
- GI50 (MOLT-4): 27.3 µM (inactive)
- GI50 (DU-145): > 100 µM (inactive)
- GI50 (SF-268): > 100 µM (inactive)
- GI50 (HCT-15): > 100 µM
- GI50 (T47D): > 100 µM (inactive)
- GI50 (HCT-116): > 100 µM (inactive)
- GI50 (M14): > 100 µM (inactive)
- GI50 (HT-29): > 100 µM (inactive)
- GI50 (SNB-75): 60.1 µM (inactive)
- GI50 (NCI/ADR-RES): > 100 µM (inactive)
- GI50 (CAKI-1): > 100 µM (inactive)
- GI50 (PC-3): > 100 µM (inactive)
- GI50 (UACC-257): > 100 µM (inactive)
- GI50 (MCF7): > 100 µM (inactive)
- GI50 (A498): > 100 µM (inactive)
- GI50 (HOP-62): 16.4 µM (inactive)
- GI50 (Malme-3M): > 100 µM (inactive)

SMILES: CN(C)CCNC(=O)c1cccc(NC(=O)c2ccccc2)c1[N+](=O)[O-]
- GI50 (UACC-62): > 100 µM (inactive)
- GI50 (MDA-N): > 100 µM (inactive)
- GI50 (SN12C): > 100 µM (inactive)
- GI50 (HCC 2998): > 100 µM (inactive)
- GI50 (COLO 205): 8.65 µM (inactive)
- GI50 (CCRF-CEM): > 100 µM (inactive)
- GI50 (SK-MEL-5): 77.1 µM (inactive)
- GI50 (SF-295): > 100 µM (inactive)
- GI50 (KM12): > 100 µM (inactive)
- GI50 (NCI-H226): > 100 µM (inactive)
- GI50 (OVCAR-8): > 100 µM (inactive)
- GI50 (ACHN): > 100 µM (inactive)
- GI50 (U-251): > 100 µM (inactive)
- GI50 (BT-549): 53.8 µM (inactive)
- GI50 (MDA-MB-435): > 100 µM (inactive)
- GI50 (786-0): > 100 µM (inactive)
- GI50 (NCI-H460): 93.5 µM (inactive)
- GI50 (SK-MEL-28): > 100 µM (inactive)
- GI50 (NCI-H522): > 100 µM (inactive)
- GI50 (SNB-19): > 100 µM (inactive)
- GI50 (UO-31): > 100 µM (inactive)
- GI50 (HL-60): > 100 µM (inactive)
- GI50 (Hs-578T): > 100 µM (inactive)
- GI50 (SK-OV-3): > 100 µM (inactive)
- GI50 (SW-620): > 100 µM (inactive)
- GI50 (NCI-H23): > 100 µM (inactive)
- GI50 (OVCAR-3): 27.7 µM (inactive)
- GI50 (OVCAR-5): > 100 µM (inactive)
- GI50 (A549): > 100 µM (inactive)
- GI50 (MDA-MB-231): > 100 µM (inactive)
- GI50 (TK-10): > 100 µM (inactive)
- GI50 (SK-MEL-2): > 100 µM (inactive)
- GI50 (IGROV-1): > 100 µM (inactive)
- GI50 (MOLT-4): > 100 µM (inactive)
- GI50 (DU-145): > 10 µM (inactive)
- GI50 (SF-268): > 100 µM (inactive)
- GI50 (HCT-15): > 100 µM
- GI50 (T47D): > 100 µM (inactive)
- GI50 (HCT-116): > 100 µM (inactive)
- GI50 (M14): > 100 µM (inactive)
- GI50 (HT-29): 25.5 µM (inactive)
- GI50 (SNB-75): 36 µM (inactive)
- GI50 (NCI/ADR-RES): > 100 µM (inactive)
- GI50 (CAKI-1): > 100 µM (inactive)
- GI50 (PC-3): > 100 µM (inactive)
- GI50 (UACC-257): > 100 µM (inactive)
- GI50 (MCF7): > 100 µM (inactive)
- GI50 (A498): > 100 µM (inactive)
- GI50 (HOP-62): > 100 µM (inactive)
- GI50 (Malme-3M): 12.8 µM (inactive)
